Experimental data reported in US20260048051A1, “TREATMENT OF INFLAMMATORY BOWEL DISEASE” (Atomwise Inc., priority 2024, published 2026).
Where two headings read alike, the source gives them in different places.

Experiment: Plasma and tissue distribution in SD rats
Assay type: in vivo
Settings: for Kp / AUC(0-t): rat, 10 mg/kg; for AUC(0-t): plasma
Source text: The following Example describes the methods and data used to evaluate the tissue distribution of TYK2 inhibitors following the administration of either compound 1 or compound 2.
Thirty (30, 15/sex) SD rats supplied by Beijing Vital River Laboratory Animal Technology Co., Ltd. were used in this study. The animals were confirmed to be healthy before being assigned to the study. The room (s) was controlled and monitored for relative humidity (targeted mean range 40% to 70%) and temperature (targeted mean range 20° C. to 26° C.) with 15 or above air changes/hour. The room was on a 12-hour light/dark cycle except when interruptions were necessitated by study activities. Fresh drinking water (reverses osmosis) was available to all animals, ad libitum. Certified animal diet from certified vendor was available to all animals, ad libitum.
Animals were weighed prior to dose administration to calculate the actual dose volume. The body weights were in the range from 245.39 to 276.33 g for males and 182.29 to 215.69 g for females on the first dosing day. The animals in Groups 1 and 2 received a single oral gavage administration of test compound 1. Cage-side observations for the general health condition and appearance of the animal were performed before and after dosing and at each time point of sample collection. Unusual observations were recorded throughout the duration of the study.
The vehicle was 0.5% methyl cellulose (4000 cps) in water. The formulation was prepared according to the following steps. Group 1: 25.95 mg of compound 1 was weighed into a glass vial. 5000 μL of vehicle was added into the vial and stirred for 30 min at 1700 rpm to get a homogenous opaque suspension. 5000 μL of vehicle was added into the vial and stirred for 10 min at 1700 rpm to get a homogenous opaque suspension. 5000 μL+5000 μL+5000 μL+924 μL of vehicle was added into the vial and stirred for 10 min at 1700 rpm to get a homogenous opaque suspension. Group 2: 81.66 mg of compound 1 was weighed into a glass vial. 5000 μL of vehicle was added into the vial and stirred for 30 min at 1700 rpm to get a homogenous opaque suspension. 5000 μL of vehicle was added into the vial and stirred for 10 min at 1700 rpm to get a homogenous opaque suspension. 10 mL+10 mL+10 mL+20 mL+10 mL+10 mL+1580 μL of vehicle was added into the vial and stirred for 10 min at 1700 rpm to get a homogenous opaque suspension.
Blood (about 0.2 mL) was collected at each time point via jugular vein puncture from each study animal. The actual time for each sample collection was recorded. The acceptable deviations on sampling time were ±1 min for the time points pre-dose through 1 hour post-dose, and +5% of the nominal time for time points after 1 hour post-dose.
All blood samples were transferred into commercial tubes containing K2-EDTA. After blood was collected, the samples were placed on wet ice and processed for plasma within 60 minutes of collection by centrifugation at approximately 4° C., 3200×g for 10 minutes, and then quickly frozen over dry ice and kept at −60° C. or lower until LC-MS/MS analysis.
Following terminal blood sample collection, animals were conducted CO2 euthanasia, the chest and abdominal cavities were opened carefully lengthwise using scissors to expose the internal organs in preparation of tissue perfusion. A needle was used to puncture a small hole into the left ventricle of the heart, and then clamped with a hemostat. […] Fluid (cold 1×PBS) was infused until the liver pales (typically 2-3 minutes). Following perfusion, 14 kinds of tissues (spleen, bone marrow, adipose, brain, heart, kidney, liver, lung, skin, small intestine, large intestine, eye, gonads, and bladder) were collected from each animal, respectively.
Each tissue was weighed and homogenized on wet ice using homogenizing buffer (MeOH/15 mM PBS 1:2) at the ratio of 1:9 (1 g tissue with 9 mL buffer). The tissue homogenate was kept at −60° C. or lower until LC-MS/MS analysis. […]

[1] = female SD rat, PO 10 mg/kg, Spleen
[2] = male SD rat, PO 10 mg/kg, Bladder
[3] = male SD rat, PO 10 mg/kg, Bone Marrow
[4] = male SD rat, PO 10 mg/kg, Epididymis & Testis
[5] = male SD rat, PO 10 mg/kg, Eyeball (left and right)
[6] = male SD rat, PO 10 mg/kg, Heart
[7] = male SD rat, PO 10 mg/kg, Kidney (left and right)
[8] = male SD rat, PO 10 mg/kg, Large intestine
[9] = male SD rat, PO 10 mg/kg, Liver
[10] = male SD rat, PO 10 mg/kg, Small intestine
[11] = male SD rat, PO 10 mg/kg, Spleen
[12] = ovary and uterus, female SD rat, PO 10 mg/kg, Ovary & Uterus

C[C@@H](c1ccc(Nc2cc(Nc3ncccc3S(C)(=O)=O)ncn2)nc1)N1CC2(COC2)C1 [Compound 1, (S)—N^4-(5-(1-(2-oxa-6-azaspiro[3.3]heptan-6-yl)ethyl)pyridin-2-yl)-N^6-(3-(methylsulfonyl)pyridin-2-yl)pyrimidine-4,6-diamine]
AUC0-24 [1]: 22131 ng·h/g | AUC0-inf [1]: 22145 ng·h/g | AUC0-last [1]: 19543 ng·h/g | Cmax [1]: 4430 ng/g | Tmax [1]: 0.5 h | half-life [1]: 2.62 h | Kp (female, SD, bladder, po, female SD rat, PO 10 mg/kg, Bladder, Tissue AUC0-last/Plasma AUC0-last, read-out: AUC Ratio): 5.12 | Kp (female, SD, bone marrow, po, female SD rat, PO 10 mg/kg, Bone Marrow, Tissue AUC0-last/Plasma AUC0-last, read-out: AUC Ratio): 4.64 | Kp (female, SD, eyeball (left and right), po, female SD rat, PO 10 mg/kg, Eyeball (left and right), Tissue AUC0-last/Plasma AUC0-last, read-out: AUC Ratio): 0.953 | Kp (female, SD, fat, po, female SD rat, PO 10 mg/kg, Fat, Tissue AUC0-last/Plasma AUC0-last, read-out: AUC Ratio): 0.506 | Kp (female, SD, heart, po, female SD rat, PO 10 mg/kg, Heart, Tissue AUC0-last/Plasma AUC0-last, read-out: AUC Ratio): 1.39 | Kp (female, SD, kidney (left and right), po, female SD rat, PO 10 mg/kg, Kidney (left and right), Tissue AUC0-last/Plasma AUC0-last, read-out: AUC Ratio): 30.6 | Kp (female, SD, large intestine, po, female SD rat, PO 10 mg/kg, Large intestine, Tissue AUC0-last/Plasma AUC0-last, read-out: AUC Ratio): 11.6 | Kp (female, SD, liver, po, female SD rat, PO 10 mg/kg, Liver, Tissue AUC0-last/Plasma AUC0-last, read-out: AUC Ratio): 8.67 | Kp (female, SD, lung, po, female SD rat, PO 10 mg/kg, Lung, Tissue AUC0-last/Plasma AUC0-last, read-out: AUC Ratio): 2.57 | Kp (female, SD, ovary and uterus, po, female SD rat, PO 10 mg/kg, Ovary & Uterus, Tissue AUC0-last/Plasma AUC0-last, read-out: AUC Ratio): 1.29 | Kp (female, SD, skin, po, female SD rat, PO 10 mg/kg, Skin, Tissue AUC0-last/Plasma AUC0-last, read-out: AUC Ratio): 1.11 | Kp (female, SD, small intestine, po, female SD rat, PO 10 mg/kg, Small intestine, Tissue AUC0-last/Plasma AUC0-last, read-out: AUC Ratio): 17.5 | Kp (female, SD, spleen, po, female SD rat, PO 10 mg/kg, Spleen, Tissue AUC0-last/Plasma AUC0-last, read-out: AUC Ratio): 5.73 | Kp (female, Sprague-Dawley, ovaries, oral, SD rat, Ovaries, read-out: Tissue/Plasma Ratio (AUCinf)): 1.4 | AUC(0-t) (female, Sprague-Dawley, po, female SD rat, PO 10 mg/kg, read-out: AUC0-24): 3610 ng·h/mL | AUC(0-t) (female, Sprague-Dawley, po, female SD rat, PO 10 mg/kg, read-out: AUC0-last): 3410 ng·h/mL | AUC0-24 [2]: 14526 ng·h/g | AUC0-inf [2]: 14666 ng·h/g | AUC0-last [2]: 14526 ng·h/g | Cmax [2]: 2980 ng/g | Tmax [2]: 2 h | half-life [2]: 3.38 h | AUC0-24 [3]: 10736 ng·h/g | AUC0-inf [3]: 10835 ng·h/g | AUC0-last [3]: 10736 ng·h/g | Cmax [3]: 2900 ng/g | Tmax [3]: 0.5 h | half-life [3]: 3.51 h | AUC0-24 [4]: 5163 ng·h/g | AUC0-last [4]: 5163 ng·h/g | AUC0-24 [5]: 1795 ng·h/g | AUC0-inf [5]: 1830 ng·h/g | AUC0-last [5]: 1332 ng·h/g | AUC0-24 (male SD rat, PO 10 mg/kg, Fat): 1703 ng·h/g | AUC0-inf (male SD rat, PO 10 mg/kg, Fat): 1716 ng·h/g | AUC0-last (male SD rat, PO 10 mg/kg, Fat): 1388 ng·h/g | AUC0-24 [6]: 3366 ng·h/g | AUC0-inf [6]: 3374 ng·h/g | AUC0-last [6]: 3004 ng·h/g | AUC0-24 [7]: 23128 ng·h/g | AUC0-inf [7]: 23415 ng·h/g | AUC0-last [7]: 23128 ng·h/g | AUC0-24 [8]: 45091 ng·h/g | AUC0-last [8]: 45091 ng·h/g | AUC0-24 [9]: 20288 ng·h/g | AUC0-inf [9]: 20534 ng·h/g | AUC0-last [9]: 20288 ng·h/g | Cmax [9]: 5400 ng/g | Tmax [9]: 0.5 h | half-life [9]: 3.87 h | AUC0-24 (male SD rat, PO 10 mg/kg, Lung): 5806 ng·h/g | AUC0-inf (male SD rat, PO 10 mg/kg, Lung): 5835 ng·h/g | AUC0-last (male SD rat, PO 10 mg/kg, Lung): 4926 ng·h/g | Cmax (male SD rat, PO 10 mg/kg, Lung): 1960 ng/g | Tmax (male SD rat, PO 10 mg/kg, Lung): 0.5 h | half-life (male SD rat, PO 10 mg/kg, Lung): 2.7 h | AUC0-24 (male SD rat, PO 10 mg/kg, Skin): 7864 ng·h/g | AUC0-inf (male SD rat, PO 10 mg/kg, Skin): 9352 ng·h/g | AUC0-last (male SD rat, PO 10 mg/kg, Skin): 7864 ng·h/g | Cmax (male SD rat, PO 10 mg/kg, Skin): 868 ng/g | Tmax (male SD rat, PO 10 mg/kg, Skin): 0.5 h | half-life (male SD rat, PO 10 mg/kg, Skin): 8.6 h | AUC0-24 [10]: 73082 ng·h/g | AUC0-inf [10]: 73697 ng·h/g | AUC0-last [10]: 73822 ng·h/g | Cmax [10]: 16500 ng/g | Tmax [10]: 0.5 h | half-life [10]: 3.41 h | AUC0-24 [11]: 13189 ng·h/g | AUC0-inf [11]: 13631 ng·h/g | AUC0-last [11]: 13189 ng·h/g | Cmax [11]: 4230 ng/g | Tmax [11]: 0.5 h | half-life [11]: 4.91 h | Kp (male, SD, bladder / plasma, po, male SD rat, PO 10 mg/kg, Bladder, Tissue AUC0-last/Plasma AUC0-last, read-out: AUC Ratio): 3.37 | Kp (male, SD, bone marrow / plasma, po, male SD rat, PO 10 mg/kg, Bone Marrow, Tissue AUC0-last/Plasma AUC0-last, read-out: AUC Ratio): 3.97 | Kp (male, SD, large intestine / plasma, po, male SD rat, PO 10 mg/kg, Large intestine, Tissue AUC0-last/Plasma AUC0-last, read-out: AUC Ratio): 16.7 | Kp (male, SD, liver / plasma, po, male SD rat, PO 10 mg/kg, Liver, Tissue AUC0-last/Plasma AUC0-last, read-out: AUC Ratio): 7.5 | Kp (male, SD, lung / plasma, po, male SD rat, PO 10 mg/kg, Lung, Tissue AUC0-last/Plasma AUC0-last, read-out: AUC Ratio): 1.82 | Kp (male, SD, skin / plasma, po, male SD rat, PO 10 mg/kg, Skin, Tissue AUC0-last/Plasma AUC0-last, read-out: AUC Ratio): 2.91 | Kp (male, SD, small intestine / plasma, po, male SD rat, PO 10 mg/kg, Small intestine, Tissue AUC0-last/Plasma AUC0-last, read-out: AUC Ratio): 27 | Kp (male, SD, spleen / plasma, po, male SD rat, PO 10 mg/kg, Spleen, Tissue AUC0-last/Plasma AUC0-last, read-out: AUC Ratio): 4.88 | Kp (male, Sprague-Dawley, epididymis and testis, po, male SD rat, PO 10 mg/kg, Epididymis & Testis, Tissue AUC0-last/Plasma AUC0-last, read-out: AUC Ratio): 1.91 | Kp (male, Sprague-Dawley, eyeball (left and right), po, male SD rat, PO 10 mg/kg, Eyeball (left and right), Tissue AUC0-last/Plasma AUC0-last, read-out: AUC Ratio): 0.492 | Kp (male, Sprague-Dawley, fat, po, male SD rat, PO 10 mg/kg, Fat, Tissue AUC0-last/Plasma AUC0-last, read-out: AUC Ratio): 0.513 | Kp (male, Sprague-Dawley, heart, po, male SD rat, PO 10 mg/kg, Heart, Tissue AUC0-last/Plasma AUC0-last, read-out: AUC Ratio): 1.11 | Kp (male, Sprague-Dawley, kidney (left and right), po, male SD rat, PO 10 mg/kg, Kidney (left and right), Tissue AUC0-last/Plasma AUC0-last, read-out: AUC Ratio): 8.35 | AUC(0-t) (male, Sprague-Dawley, po, male SD rat, PO 10 mg/kg, read-out: AUC0-24): 2910 ng·h/mL | AUC(0-t) (male, Sprague-Dawley, po, male SD rat, PO 10 mg/kg, read-out: AUC0-last): 2700 ng·h/mL | Kp (male, Sprague-Dawley, testis, oral, SD rat, Testis, read-out: Tissue/Plasma Ratio (AUCinf)): 1.6 | Cmax [12]: 976 ng/g | Tmax [12]: 0.5 h | half-life [12]: 2.68 h
